pEC50, pIC50: −log10 of the molar value. Activity calls are given as the source filed them. No cut-off for these calls is given here.
Key:
[1] = target: T1, Human immunodeficiency virus type 1 reverse transcriptase (Human immunodeficiency virus 1, UniProt Q72547); experiment: Inhibition of HIV1 recombinant wild type reverse transcriptase p66/p51 using dsDNA by microplate reader based assay
[2] = tested on: Human immunodeficiency virus 1; experiment: Antiviral activity against HIV1 3B acutely infected in human MT4 cells assessed as inhibition of virus-induced cytopathogenic effect after 5 days by MTT assay; type: functional, organism-based; conditions: Human immunodeficiency virus 1, 3B, MT4, 120 h
[3] = tested on: Human immunodeficiency virus 2; experiment: Antiviral activity against HIV2 ROD acutely infected in human MT4 cells assessed as inhibition of virus-induced cytopathogenic effect after 5 days by MTT assay; type: functional, organism-based; conditions: Human immunodeficiency virus 2, ISOLATE ROD, MT4, 120 h
[4] = Cytotoxicity against mock-infected human MT4 cells after 5 days by MTT assay; type: cell-based
[5] = target: T2, Protein Tat (Human immunodeficiency virus type 1 group M subtype B (isolate HXB2)(HIV-1)) (UniProt P04608); experiment: Inhibition of HIV1 Tat-mediated transactivation of HIV1 long terminal repeat in human HeLa cells after 24 hrs by LTR driven luciferase reporter assay; type: cell-based; conditions: Human immunodeficiency virus 1
T2 sequence (whole entry): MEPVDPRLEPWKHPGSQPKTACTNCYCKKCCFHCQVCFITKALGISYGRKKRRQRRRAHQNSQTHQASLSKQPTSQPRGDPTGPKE

[6] = target: T1, Human immunodeficiency virus type 1 reverse transcriptase; experiment: Inhibition of HIV reverse transcriptase
HeLa = experiment: Cytotoxicity against human HeLa cells at 10 uM to 200 uM after 24 hrs; type: cell-based
[7] = Selectivity index, ratio of CC50 for human OM10.1 cells to IC50 for HIV1 latently infected in human OM10.1 cells; type: functional
[8] = tested on: Human immunodeficiency virus 1; experiment: Antiviral activity against HIV1 latently infected in PMA-stimulated human OM10.1 cells assessed as reduction in p24 antigen levels pre-incubated for 2 hrs with host cells followed by 2 day incubation; type: functional, organism-based
[9] = Cytotoxicity against human OM10.1 cells by MTT assay; type: cell-based

| Compound | pIC50 [1] | inhibition [5] | pIC50 [6] | pEC50 [2] | pEC50 [3] | CC50 at 120 h [4] | Activity (HeLa) | Ratio CC50/IC50 [7] | pEC50 [8] | CC50 [9] |
| --- | --- | --- | --- | --- | --- | --- | --- | --- | --- | --- |
| CCN1c2ncccc2NC(=O)c2cc(N3CCN(c4cc5c(cc4N)c(=O)c(C(=O)O)cn5C)CC3)cnc21 | 4.83 | inactive |  | < 4.59 | < 4.59 | 25.7 µM |  |  |  |  |
| CCN1c2ncc(CCOc3cc[n+]([O-])c4ccccc34)cc2C(=O)N(C)c2cccnc21 [BILR 355] |  |  | 7.77 |  |  |  |  |  |  |  |
| CCN1c2ncccc2NC(=O)c2cc(NCCNc3cc4c(cc3N)c(=O)c(C(=O)O)cn4C)cnc21 | 4.13 | inactive |  | < 3.70 | < 3.70 | > 200 µM |  |  |  |  |
| Cc1ccnc2c1NC(=O)c1cccnc1N2C1CC1 [NEVIRAPINE] |  |  |  |  | < 4.82 | > 15 µM |  |  |  |  |

Continued, in another order:

| pIC50 [1] | inhibition [5] | pIC50 [6] | Compound | pEC50 [2] | pEC50 [3] | CC50 at 120 h [4] | Activity (HeLa) | Ratio CC50/IC50 [7] | pEC50 [8] | CC50 [9] |
| --- | --- | --- | --- | --- | --- | --- | --- | --- | --- | --- |
| 5.08 | Dose-dependent effect |  | CCN1c2ncccc2NC(=O)c2ccc(N3CCN(c4cc5c(cc4N)c(=O)c(C(=O)O)cn5C)CC3)nc21 | < 4.63 | < 4.63 | 23.5 µM | Non-toxic | 4 | 5.29 | 18.4 µM |
| 3.10 |  |  | Cn1cc(C(=O)O)c(=O)c2cc(N)c(N3CCN(c4ccccn4)CC3)cc21 | 6.82 | 6.60 |  |  |  | 7.12 | 31.2 µM |
